Measurements: ChEMBL document CHEMBL1201862, “PubChem BioAssay data set” (2004)
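A five-concentration, 48-hour dose response in 96-well plates underlies each endpoint, interpolated linearly between surrounding concentrations. The concentration for 50% growth inhibition is given as GI50.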 The source made the active and inactive calls. Cut-off read from the data, not from the text of the source: active = GI50 up to about 1.1 µM and inactive = higher.

What was measured:
Experiment in all cases: growth of human tumour cells (NCI), 48 h
NCI-H23 = test system: NCI-H23
KM12 = test system: KM12
UACC-62 = test system: UACC-62
SK-MEL-2 = test system: SK-MEL-2
RXF 393 = test system: RXF 393
SNB-19 = test system: SNB-19
HL-60 = test system: HL-60
NCI-H460 = test system: NCI-H460
SF-295 = test system: SF-295
EKVX = test system: EKVX
CCRF-CEM = test system: CCRF-CEM
SN12C = test system: SN12C
SF-539 = test system: SF-539
A549 = test system: A549
TK-10 = test system: TK-10
SK-MEL-28 = test system: SK-MEL-28
MDA-MB-435 = test system: MDA-MB-435
MDA-MB-231 = test system: MDA-MB-231
DU-145 = test system: DU-145
MDA-N = test system: MDA-N

Compound | GI50 (NCI-H23) | GI50 (KM12) | GI50 (UACC-62) | GI50 (SK-MEL-2) | GI50 (RXF 393) | GI50 (SNB-19) | GI50 (HL-60) | GI50 (NCI-H460) | GI50 (SF-295) | GI50 (EKVX) | GI50 (CCRF-CEM) | GI50 (SN12C) | GI50 (SF-539) | GI50 (A549) | GI50 (TK-10) | GI50 (SK-MEL-28) | GI50 (MDA-MB-435) | GI50 (MDA-MB-231) | GI50 (DU-145) | GI50 (MDA-N)
COC(=O)/C=C(\C(=O)OC)c1c2c3c(cc(OC)c(OC)c3c3ccccc13)CCN2C | 42.2 µM (inactive) | 36.1 µM (inactive) | 24.2 µM (inactive) | 35.4 µM (inactive) | 8.79 µM (inactive) | 35.5 µM (inactive) | 17.9 µM (inactive) | 35.9 µM (inactive) | 78.9 µM (inactive) | 64.6 µM (inactive) | 24 µM (inactive) | 58.6 µM (inactive) | 27.5 µM (inactive) | 24.4 µM (inactive) | 48.4 µM (inactive) | 38.3 µM (inactive) | – | – | – | –
COc1cc2c(/C=C3/C(=O)Nc4ccc(O)cc43)c(Cl)n(Cc3ccccc3)c2cc1C | 0.618 µM (active) | 0.265 µM (active) | 2.37 µM (inactive) | 3.73 µM (inactive) | 0.352 µM (active) | 0.596 µM (active) | 0.306 µM (active) | 0.553 µM (active) | 0.323 µM (active) | 5.62 µM (inactive) | 0.873 µM (active) | 6.17 µM (inactive) | 0.392 µM (active) | 0.975 µM (active) | 3.36 µM (inactive) | 3.56 µM (inactive) | 0.078 µM (active) | 6 µM (inactive) | 1.16 µM (inactive) | –
Clc1nc(NCCc2ccccc2)c2ncn(-c3ccccc3)c2n1 | 25.6 µM (inactive) | 16.8 µM (inactive) | 20.8 µM (inactive) | 1.83 µM (inactive) | 24.8 µM (inactive) | 37 µM (inactive) | – | 15.3 µM (inactive) | 25.3 µM (inactive) | 22.5 µM (inactive) | – | 27.5 µM (inactive) | – | 26.4 µM (inactive) | 21.1 µM (inactive) | 33.3 µM (inactive) | 16.3 µM (inactive) | 21.8 µM (inactive) | 25.2 µM (inactive) | 18.5 µM (inactive)
CN(C)c1ccc(/C=c2\sc3nnc(-c4ccco4)n3c2=O)cc1 | > 100 µM (inactive) | > 100 µM (inactive) | > 100 µM (inactive) | > 100 µM (inactive) | > 100 µM (inactive) | > 100 µM (inactive) | > 100 µM (inactive) | > 100 µM (inactive) | > 100 µM (inactive) | > 100 µM (inactive) | > 100 µM (inactive) | > 100 µM (inactive) | > 100 µM (inactive) | > 100 µM (inactive) | > 100 µM (inactive) | > 100 µM (inactive) | – | – | – | –
CC(/C=C/C(=O)c1sc(C(N)=S)nc1C)=C\c1ccccc1 | > 100 µM (inactive) | > 100 µM (inactive) | > 100 µM (inactive) | > 100 µM (inactive) | > 100 µM (inactive) | 15.1 µM (inactive) | > 100 µM (inactive) | 35.4 µM (inactive) | > 100 µM (inactive) | > 100 µM (inactive) | 58.2 µM (inactive) | > 100 µM (inactive) | > 100 µM (inactive) | > 100 µM (inactive) | > 100 µM (inactive) | > 100 µM (inactive) | – | – | – | –
COc1ccc(/C=C2\N=C(SC)N(C)C2=O)cc1 | > 100 µM (inactive) | – | 70.3 µM (inactive) | > 100 µM (inactive) | > 100 µM (inactive) | > 100 µM (inactive) | 27.5 µM (inactive) | 99.1 µM (inactive) | – | – | > 100 µM (inactive) | 71.6 µM (inactive) | 92 µM (inactive) | 63.2 µM (inactive) | > 100 µM (inactive) | > 100 µM (inactive) | 51.4 µM (inactive) | 41.2 µM (inactive) | > 100 µM (inactive) | –
CNn1c(-c2ccc(C)cc2)n[nH]c1=O | > 100 µM (inactive) | > 100 µM (inactive) | > 100 µM (inactive) | > 100 µM (inactive) | > 100 µM (inactive) | > 100 µM (inactive) | – | > 100 µM (inactive) | > 100 µM (inactive) | > 100 µM (inactive) | 92 µM (inactive) | > 100 µM (inactive) | > 100 µM (inactive) | > 100 µM (inactive) | > 100 µM (inactive) | – | > 100 µM (inactive) | > 100 µM (inactive) | – | –
CC(C)CC12CC3CCC(CNC1=O)C32C (configuration not stated) | > 100 µM (inactive) | > 100 µM (inactive) | > 100 µM (inactive) | > 100 µM (inactive) | > 100 µM (inactive) | > 100 µM (inactive) | 31.9 µM (inactive) | > 100 µM (inactive) | > 100 µM (inactive) | > 100 µM (inactive) | 35.5 µM (inactive) | > 100 µM (inactive) | > 100 µM (inactive) | > 100 µM (inactive) | > 100 µM (inactive) | > 100 µM (inactive) | – | – | – | –
